According to patent publication US12065443B2, “Compounds and pharmaceutical compositions thereof for the treatment of diseases” (priority 2017, dated 2024):

Legend:
Experiment in all cases: biochemical
SIK2 = target: T1, SIK2 (Homo sapiens, UniProt Q9H0K1); details: 33P radioactive SIK kinase assay, AMARA peptide, 10 μM ATP
T1 construct: purchased ThermoFisher Scientific PV4792
Protocol: (§1) The principle of the ^33P radioactive kinase assay consists in measuring the incorporated ^33P into the substrate AMARA peptide when phosphorylated by SIK1, SIK2 or SIK3 using [^33P]-g-ATP, which correlates with kinase activity.
(§2) 1% DMSO and 10 μM staurosporine final concentrations are used as negative and positive controls.
(§3) 11 μL of enzyme-substrate mixture is added on the assay plates. The reactions are started by adding 9 μL ATP mixture, consisting of non-labeled and ^33P-labeled ATP, on the assay plates.
(§4) The reactions are stopped by adding 25 μL phosphoric acid (150 mM) to the reactions.
(§5) After harvesting the kinase reactions, the filter plates are washed 6 times with phosphoric acid (75 mM). […] The top of the plates are sealed with TopSeal-A. Read-out is performed with a TopCount instrument (PerkinElmer Inc.).

SIK1 = target: T2, SIK1 (Homo sapiens, UniProt P57059); details: 33P radioactive SIK kinase assay, AMARA peptide, 10 μM ATP; read-out: SIK1 IC50
T2 construct: purchased Carna Biosciences 02-131
T2 sequence (P57059 whole entry): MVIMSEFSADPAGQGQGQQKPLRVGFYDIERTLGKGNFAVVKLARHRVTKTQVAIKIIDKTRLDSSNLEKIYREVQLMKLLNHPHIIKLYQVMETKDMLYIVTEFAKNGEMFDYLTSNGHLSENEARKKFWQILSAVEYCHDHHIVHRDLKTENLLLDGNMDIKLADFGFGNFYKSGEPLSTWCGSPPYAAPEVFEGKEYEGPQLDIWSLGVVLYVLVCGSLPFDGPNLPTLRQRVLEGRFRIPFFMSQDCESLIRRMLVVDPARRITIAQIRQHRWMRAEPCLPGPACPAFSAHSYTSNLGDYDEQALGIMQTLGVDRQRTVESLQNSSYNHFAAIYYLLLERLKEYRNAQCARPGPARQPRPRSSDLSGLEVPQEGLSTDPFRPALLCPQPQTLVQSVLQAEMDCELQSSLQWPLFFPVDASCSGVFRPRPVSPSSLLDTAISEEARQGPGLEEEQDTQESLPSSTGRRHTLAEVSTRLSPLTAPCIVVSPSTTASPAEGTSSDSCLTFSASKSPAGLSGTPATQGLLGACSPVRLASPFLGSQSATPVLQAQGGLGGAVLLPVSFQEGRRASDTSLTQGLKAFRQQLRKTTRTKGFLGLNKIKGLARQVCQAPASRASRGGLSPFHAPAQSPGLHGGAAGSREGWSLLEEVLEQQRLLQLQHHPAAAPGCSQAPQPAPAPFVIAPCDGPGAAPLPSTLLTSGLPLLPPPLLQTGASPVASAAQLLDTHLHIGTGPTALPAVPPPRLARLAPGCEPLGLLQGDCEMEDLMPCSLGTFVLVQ
Protocol: as §1, §2, §3, §4, §5

SIK3 = target: T3, SIK3 (Homo sapiens, UniProt Q9Y2K2)
T3 construct: purchased SignalChem S12-11G-100
T3 sequence (Q9Y2K2 whole entry): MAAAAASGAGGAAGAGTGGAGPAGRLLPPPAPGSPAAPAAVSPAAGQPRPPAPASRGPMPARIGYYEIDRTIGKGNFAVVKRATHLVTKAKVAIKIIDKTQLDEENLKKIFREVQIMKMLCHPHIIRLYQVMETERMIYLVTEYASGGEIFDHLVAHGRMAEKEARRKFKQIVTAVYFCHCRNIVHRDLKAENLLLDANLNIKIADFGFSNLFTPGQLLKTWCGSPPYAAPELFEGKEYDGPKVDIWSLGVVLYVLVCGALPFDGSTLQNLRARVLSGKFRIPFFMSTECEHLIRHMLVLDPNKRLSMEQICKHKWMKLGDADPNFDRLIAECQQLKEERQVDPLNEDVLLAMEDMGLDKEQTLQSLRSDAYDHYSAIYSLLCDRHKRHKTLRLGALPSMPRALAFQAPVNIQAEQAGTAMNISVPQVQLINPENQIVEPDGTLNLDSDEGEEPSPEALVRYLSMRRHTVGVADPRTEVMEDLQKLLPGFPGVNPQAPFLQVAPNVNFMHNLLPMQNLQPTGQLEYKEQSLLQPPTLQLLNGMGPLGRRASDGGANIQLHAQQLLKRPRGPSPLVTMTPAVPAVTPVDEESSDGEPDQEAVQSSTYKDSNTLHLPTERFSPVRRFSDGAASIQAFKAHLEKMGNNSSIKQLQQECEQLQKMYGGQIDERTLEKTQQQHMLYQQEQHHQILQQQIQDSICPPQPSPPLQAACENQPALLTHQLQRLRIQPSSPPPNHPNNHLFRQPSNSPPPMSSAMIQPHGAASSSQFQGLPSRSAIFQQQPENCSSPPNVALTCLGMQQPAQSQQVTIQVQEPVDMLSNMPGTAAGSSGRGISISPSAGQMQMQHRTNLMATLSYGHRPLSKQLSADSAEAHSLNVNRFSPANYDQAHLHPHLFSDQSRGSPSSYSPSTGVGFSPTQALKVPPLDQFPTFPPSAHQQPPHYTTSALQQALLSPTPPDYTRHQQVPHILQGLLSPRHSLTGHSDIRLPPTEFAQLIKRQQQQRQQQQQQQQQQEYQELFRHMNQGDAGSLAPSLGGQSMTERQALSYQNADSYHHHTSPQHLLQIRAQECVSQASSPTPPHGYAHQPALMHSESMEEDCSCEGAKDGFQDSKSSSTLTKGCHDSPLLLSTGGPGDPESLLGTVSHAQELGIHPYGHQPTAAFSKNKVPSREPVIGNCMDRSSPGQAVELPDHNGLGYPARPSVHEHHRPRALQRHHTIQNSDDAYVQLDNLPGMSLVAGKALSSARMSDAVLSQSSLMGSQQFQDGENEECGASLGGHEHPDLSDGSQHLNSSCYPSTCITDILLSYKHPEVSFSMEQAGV
Protocol: as §1, §2, §3, §4, §5

T1 sequence (Q9H0K1 whole entry): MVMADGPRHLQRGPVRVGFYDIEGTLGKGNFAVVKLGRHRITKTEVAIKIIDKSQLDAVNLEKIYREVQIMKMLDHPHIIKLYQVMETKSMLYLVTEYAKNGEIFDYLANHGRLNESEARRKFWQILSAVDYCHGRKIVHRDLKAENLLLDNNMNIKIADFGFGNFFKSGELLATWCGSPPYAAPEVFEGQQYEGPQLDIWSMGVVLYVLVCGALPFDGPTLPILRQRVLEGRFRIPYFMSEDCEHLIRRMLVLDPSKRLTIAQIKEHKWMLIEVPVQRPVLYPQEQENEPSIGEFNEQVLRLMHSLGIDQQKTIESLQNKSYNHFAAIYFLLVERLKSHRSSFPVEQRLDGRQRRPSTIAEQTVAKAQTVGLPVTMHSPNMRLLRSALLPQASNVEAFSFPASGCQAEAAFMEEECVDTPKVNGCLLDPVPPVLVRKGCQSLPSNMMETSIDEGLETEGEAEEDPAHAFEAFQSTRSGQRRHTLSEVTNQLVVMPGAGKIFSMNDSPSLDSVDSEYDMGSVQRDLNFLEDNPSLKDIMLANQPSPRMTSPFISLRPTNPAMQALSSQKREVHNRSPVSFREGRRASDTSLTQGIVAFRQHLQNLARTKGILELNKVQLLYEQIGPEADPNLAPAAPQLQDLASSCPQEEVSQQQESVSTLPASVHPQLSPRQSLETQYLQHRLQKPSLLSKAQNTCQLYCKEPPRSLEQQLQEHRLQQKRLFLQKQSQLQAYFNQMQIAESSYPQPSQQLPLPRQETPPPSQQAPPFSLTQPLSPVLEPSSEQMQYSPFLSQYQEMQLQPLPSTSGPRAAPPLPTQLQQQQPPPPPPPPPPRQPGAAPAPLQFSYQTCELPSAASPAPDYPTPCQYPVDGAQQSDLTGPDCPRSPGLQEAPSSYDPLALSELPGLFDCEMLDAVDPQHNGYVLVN

| SMILES | IC50 (SIK2) [nM] | IC50 (SIK1) [nM] | IC50 (SIK3) [nM] |
| --- | --- | --- | --- |
| COc1cc(-n2cnc3cc(-c4cnn(C)c4)ccc32)cc(OC(C)C)c1C(=O)NC1CC1 [Cpd 119, N-cyclopropyl-2-isopropoxy-6-methoxy-4-[5-(1-methylpyrazol-4-yl)benzimidazol-1-yl]benzamide] | 100 to 500 | 100 to 500 | 100 to 500 |
| COc1cc(-n2cnc3cc(-c4cnn(C)c4)ccc32)cc(OC)c1C(=O)NC1CCS(=O)(=O)C1 (stereo not drawn) [compound 66, N-(1,1-dioxothiolan-3-yl)-2,6-dimethoxy-4-[5-(1-methylpyrazol-4-yl)benzimidazol-1-yl]benzamide] | 100 to 500 | 100 to 500 | 100 to 500 |
| CCC(C)NC(=O)c1c(OC)cc(-n2cnc3cc(-c4cnn(C)c4)ccc32)cc1OC (stereo not drawn) [compound 114, 2,6-dimethoxy-4-[5-(1-methylpyrazol-4-yl)benzimidazol-1-yl]-N-sec-butyl-benzamide] | 100 to 500 | 100 to 500 | 100 to 500 |
| COc1cc(-c2cnc3cc(-c4cnn(C)c4)ccn23)cc(OC)c1C(=O)NC(C(C)C)C(F)(F)F (stereo not drawn) [compound 200] | 10 to 100 | 10 to 100 | 10 to 100 |
| COc1cc(-n2cnc3cc(-c4ccc(N(C)C)nc4)ccc32)cc(OC)c1C(=O)NCC(F)(F)F [compound 37, 4-[5-[6-(dimethylamino)-3-pyridyl]benzimidazol-1-yl]-2,6-dimethoxy-N-(2,2,2-trifluoroethyl)benzamide] | 100 to 500 | 100 to 500 | 100 to 500 |
| COc1cc(-c2cnc3cc(-c4cnc(N)nc4)ccn23)cc(OC)c1C(=O)NCC(F)(F)F [compound 246, 4-[7-(2-aminopyrimidin-5-yl)imidazo[1,2-a]pyridin-3-yl]-2,6-dimethoxy-N-(2,2,2-trifluoroethyl)benzamide] | 10 to 100 | 10 to 100 | 0.01 to 10 |
| CCNC(=O)c1c(OC)cc(-n2cnc3cc(-c4nnc(C)[nH]4)ccc32)cc1OC(F)F [compound 150, 2-(difluoromethoxy)-N-ethyl-6-methoxy-4-[5-(5-methyl-4H-1,2,4-triazol-3-yl)benzimidazol-1-yl]benzamide] | > 500 | > 500 | > 500 |
| COc1cc(-c2cnc3cc(-c4cn(C)nc4C(F)(F)F)ccn23)cc(OC)c1C(=O)NCC(F)(F)F [compound 249, 2,6-dimethoxy-4-[7-[1-methyl-3-(trifluoromethyl)pyrazol-4-yl]imidazo[1,2-a]pyridin-3-yl]-N-(2,2,2-trifluoroethyl)benzamide] | 10 to 100 | 100 to 500 | 10 to 100 |
| COc1cc(-n2cnc3cc(-c4nnc(C)n4C)ccc32)cc(OC)c1C(=O)NCC(F)(F)F [Cpd 168, 4-[5-(4,5-dimethyl-1,2,4-triazol-3-yl)benzimidazol-1-yl]-2,6-dimethoxy-N-(2,2,2-trifluoroethyl)benzamide] | > 500 | > 500 | > 500 |
| COc1cc(-n2cnc3cc(-c4cnn(C)c4)ccc32)cc(OC)c1C(=O)N1CC(CO)C1 [compound 183, [2,6-dimethoxy-4-[5-(1-methylpyrazol-4-yl)benzimidazol-1-yl]phenyl]-[3-(hydroxymethyl)azetidin-1-yl]methanone] | 100 to 500 | 100 to 500 | 100 to 500 |
| COc1cc(-n2cnc3cc(-c4cnn(C)c4)ccc32)cc(OC)c1C(=O)NC(C)C(F)F (stereo not drawn) [compound 91, N-(2,2-difluoro-1-methyl-ethyl)-2,6-dimethoxy-4-[5-(1-methylpyrazol-4-yl)benzimidazol-1-yl]benzamide] | 10 to 100 | 10 to 100 | 10 to 100 |
| COc1cc(-c2cnc3cc(-c4cc(C)no4)ccn23)cc(OC)c1C(=O)N[C@@H](C)C(F)(F)F [compound 224, 2,6-dimethoxy-4-[7-(3-methylisoxazol-5-yl)imidazo[1,2-a]pyridin-3-yl]-N-[(1S)-2,2,2-trifluoro-1-methyl-ethyl]benzamide] | 100 to 500 | 100 to 500 | 100 to 500 |
| COc1cc(-n2cnc3cc(-c4cnn(C)c4)ccc32)cc(OC)c1C(=O)NCC(C)C [compound 113, N-isobutyl-2,6-dimethoxy-4-[5-(1-methylpyrazol-4-yl)benzimidazol-1-yl]benzamide] | 10 to 100 | 10 to 100 | 10 to 100 |
| COc1cncc(-c2ccn3c(-c4cc(OC)c(C(=O)NCC(F)(F)F)c(OC)c4)cnc3c2)c1 [compound 245, 2,6-dimethoxy-4-[7-(5-methoxy-3-pyridyl)imidazo[1,2-a]pyridin-3-yl]-N-(2,2,2-trifluoroethyl)benzamide] | 10 to 100 | 10 to 100 | 0.01 to 10 |
| COc1cc(-c2cnc3cc(-c4cnn(C)c4)ccn23)cc(OC)c1C(=O)N[C@H]1CC[C@@H]1O [compound 170] | 0.01 to 10 | 10 to 100 | 0.01 to 10 |
| COc1cc(-n2cnc3cc(-c4cnn(C)c4)ccc32)cc(OC)c1C(=O)N1C(C)CC1(C)C (stereo not drawn) [compound 189, [2,6-dimethoxy-4-[5-(1-methylpyrazol-4-yl)benzimidazol-1-yl]phenyl]-(2,2,4-trimethylazetidin-1-yl)methanone] | > 500 | > 500 | > 500 |
| COc1cc(-n2cnc3cc(-n4cnc(C)n4)ccc32)cc(OC)c1C(=O)NCC(F)(F)F [Cpd 166, 2,6-dimethoxy-4-[5-(3-methyl-1,2,4-triazol-1-yl)benzimidazol-1-yl]-N-(2,2,2-trifluoroethyl)benzamide] | > 500 | > 500 | 100 to 500 |
| CCn1cc(-c2ccc3c(c2)ncn3-c2cc(OC)c(C(=O)N(C)CC#N)c(OC)c2)cn1 [compound 31, N-(cyanomethyl)-4-[5-(1-ethylpyrazol-4-yl)benzimidazol-1-yl]-2,6-dimethoxy-N-methyl-benzamide] | 100 to 500 | 100 to 500 | 10 to 100 |
| COc1cc(-n2cnc3cc(-c4cnn(C)c4)ccc32)cc(OC)c1C(=O)N1CCC(c2ccccc2)C1 (stereo not drawn) [compound 196, [2,6-dimethoxy-4-[5-(1-methylpyrazol-4-yl)benzimidazol-1-yl]phenyl]-(3-phenylpyrrolidin-1-yl)methanone] | > 500 | > 500 | > 500 |
| COc1cc(-n2cnc3cc(-c4cnn(C)c4)ccc32)cc(OC)c1C(=O)N1C(C)CC1C (stereo not drawn) [compound 181, [2,6-dimethoxy-4-[5-(1-methylpyrazol-4-yl)benzimidazol-1-yl]phenyl]-(2,4-dimethylazetidin-1-yl)methanone] | > 500 | > 500 | > 500 |
| COc1cc(-n2cnc3cc(-c4cnn(C)c4)ccc32)cc(OC)c1C(=O)Nc1ccon1 [compound 72, N-isoxazol-3-yl-2,6-dimethoxy-4-[5-(1-methylpyrazol-4-yl)benzimidazol-1-yl]benzamide] | 10 to 100 | 10 to 100 | 10 to 100 |
| COc1cc(-n2cnc3cc(-c4cnn(C)c4)ccc32)cc(OC)c1C(=O)N1CC(O)(C2CC2)C1 [compound 220, (3-cyclopropyl-3-hydroxy-azetidin-1-yl)-[2,6-dimethoxy-4-[5-(1-methylpyrazol-4-yl)benzimidazol-1-yl]phenyl]methanone] | 10 to 100 | 10 to 100 | 10 to 100 |
| COc1cc(-n2cnc3cc(-c4nc(C)no4)ccc32)cc(OC)c1C(=O)NCC(F)(F)F [Cpd 169, 2,6-dimethoxy-4-[5-(3-methyl-1,2,4-oxadiazol-5-yl)benzimidazol-1-yl]-N-(2,2,2-trifluoroethyl)benzamide] | > 500 | > 500 | > 500 |
| COc1cc(-n2cnc3cc(-c4cnn(C)c4)ccc32)cc(OC)c1C(=O)NC[C@@H]1COCCO1 [compound 67, N-[[(2R)-1,4-dioxan-2-yl]methyl]-2,6-dimethoxy-4-[5-(1-methylpyrazol-4-yl)benzimidazol-1-yl]benzamide] | 100 to 500 | 100 to 500 | 100 to 500 |
| COc1cc(-n2cnc3cc(-c4cnn(C)c4)ccc32)cc(OC)c1C(=O)Nc1cn(C)cn1 [compound 82, 2,6-dimethoxy-N-(1-methylimidazol-4-yl)-4-[5-(1-methylpyrazol-4-yl)benzimidazol-1-yl]benzamide] | 100 to 500 | 100 to 500 | 100 to 500 |
| COc1cc(-c2cnc3cc(-c4cccnc4OC)ccn23)cc(OC)c1C(=O)NCC(F)(F)F [compound 250, 2,6-dimethoxy-4-[7-(2-methoxy-3-pyridyl)imidazo[1,2-a]pyridin-3-yl]-N-(2,2,2-trifluoroethyl)benzamide] | 10 to 100 | 100 to 500 | 10 to 100 |
| COc1cc(-n2cnc3cc(-c4cnn(C)c4)ccc32)cc(OC)c1C(=O)N1CC(C)(O)C1 [compound 217, [2,6-dimethoxy-4-[5-(1-methylpyrazol-4-yl)benzimidazol-1-yl]phenyl]-(3-hydroxy-3-methyl-azetidin-1-yl)methanone] | 10 to 100 | 10 to 100 | 10 to 100 |
| COc1cc(-n2cnc3cc(-c4cnc(C)n4C)ccc32)cc(OC)c1C(=O)NCC(F)(F)F [compound 138, 4-[5-(2,3-dimethylimidazol-4-yl)benzimidazol-1-yl]-2,6-dimethoxy-N-(2,2,2-trifluoroethyl)benzamide] | 100 to 500 | > 500 | 100 to 500 |
